The assay has as its target T1, SIRT1 (Homo sapiens, UniProt Q96EB6).
T1 sequence (Q96EB6 1-747): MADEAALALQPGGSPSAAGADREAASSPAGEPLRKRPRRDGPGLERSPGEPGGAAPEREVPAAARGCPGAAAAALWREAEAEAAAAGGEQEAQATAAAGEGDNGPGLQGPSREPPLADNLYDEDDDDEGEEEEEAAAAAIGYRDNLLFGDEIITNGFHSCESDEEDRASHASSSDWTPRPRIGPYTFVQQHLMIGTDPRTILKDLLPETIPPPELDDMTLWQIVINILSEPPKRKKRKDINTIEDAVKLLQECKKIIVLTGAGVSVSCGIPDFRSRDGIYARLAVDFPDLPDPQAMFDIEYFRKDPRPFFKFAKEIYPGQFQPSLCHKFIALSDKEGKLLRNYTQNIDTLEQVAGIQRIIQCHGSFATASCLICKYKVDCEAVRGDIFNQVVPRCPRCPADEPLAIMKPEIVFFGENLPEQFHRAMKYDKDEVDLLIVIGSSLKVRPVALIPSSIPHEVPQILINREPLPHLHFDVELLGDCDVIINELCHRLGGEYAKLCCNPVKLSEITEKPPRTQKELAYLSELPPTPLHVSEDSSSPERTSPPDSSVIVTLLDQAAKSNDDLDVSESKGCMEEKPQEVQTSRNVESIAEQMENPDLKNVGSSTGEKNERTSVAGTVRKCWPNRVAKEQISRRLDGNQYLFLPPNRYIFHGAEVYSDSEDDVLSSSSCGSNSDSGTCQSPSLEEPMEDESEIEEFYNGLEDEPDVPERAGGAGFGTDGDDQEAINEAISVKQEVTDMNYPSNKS
Put plainly: Trp mass spectrometry assay (SIRT1 activation). Type of assay: biochemical. Particulars: Trp mass spectrometry assay; for Emax: percent maximum fold activation of SIRT1, read-out: Tryp % Fold Act; for Tryp AVG EC1.5 (μM): EC1.5 = concentration of test compound that results in 150% activation of SIRT1. From the text:
Mass spectrometry based assays were used to identify modulators of SIRT1 activity. […] The peptide was labeled with the fluorophore 5TMR (excitation 540 nm/emission 580 nm) at the C-terminus. The sequence of the peptide substrate was based on p53 with several modifications. In addition, the methionine residue naturally present in the sequence was replaced with the norleucine because the methionine may be susceptible to oxidation during synthesis and purification. The Trp based assay utilized a peptide having an amino acid residues as follows: Ac-R-H-K-K(Ac)-W-NH2 (SEQ ID NO: 2).
The Trp mass spectrometry assay was conducted as follows. 0.5 μM peptide substrate and 120 μM βNAD^+ were incubated with 10 nM SIRT1 for 25 minutes at 25° C. in a reaction buffer (50 mM HEPES pH 7.5, […] NaCl, 1 mM DTT, 0.05% BSA). The SIRT1 protein was obtained by cloning the SirT1 gene into a T7-promoter containing vector, which was then expressed in BL21(DE3) bacterial cells and purified as described in further detail below. Test compound was added at varying concentrations to this reaction mixture and the resulting reactions were monitored. After the 25 minute incubation with SIRT1, 10 μL of 10% formic acid was added to stop the reaction. The resulting reactions were sealed and frozen for later mass spec analysis. The relative SIRT1 activity was then determined by measuring the amount of 0-acetyl-ADP-ribose (OAADPR) formed (or, alternatively, the amount of deacetylated Trp peptide generated) by the NAD-dependent sirtuin deacetylation reaction in the presence of varying concentrations of the test compound versus control reactions lacking the test compound. The degree to which the test agent activated deacetylation by SIRT1 was expressed as EC1.5 (i.e., the concentration of compound required to increase SIRT1 activity by 50% over the control lacking test compound), and Percent Maximum Activation (i.e., the maximum activity relative to control (100%) obtained for the test compound).
A control for activation of sirtuin activity was conducted using 10 nM of sirtuin protein, with 1 μL of DMSO in place of compound, to determine the amount of deacetylation of the substrate at a given time point within the linear range of the assay. This time point was the same as that used for test compounds and, within the linear range, the endpoint represents a change in velocity.
For the above assay, SIRT1 protein was expressed and purified as follows. The SirT1 gene was cloned into a T7-promoter containing vector and transformed into BL21(DE3). The protein was expressed by induction with 1 mM IPTG as an N-terminal His-tag fusion protein at 18° C. overnight and harvested at 30,000×g. Cells were lysed with lysozyme in lysis buffer (50 mM Tris-HCl, 2 mM Tris[2-carboxyethyl] phosphine (TCEP), 10 μM ZnCl2, 200 mM NaCl) and further treated with sonication for 10 min for complete lysis. The protein was purified over a Ni-NTA column (Amersham) and fractions containing pure protein were pooled, concentrated and run over a sizing column (Sephadex S200 26/60 global). The peak containing soluble protein was collected and run on an Ion-exchange column (MonoQ). Gradient elution (200 mM-500 mM NaCl) yielded pure protein. This protein was concentrated and dialyzed against dialysis buffer (20 mM Iris-HCl, 2 mM TCEP) overnight. The protein was aliquoted and frozen at −80° C. until further use.

Turning to `O=C(Nc1ccc(F)cn1)N1c2nc(-c3cccc(Cl)c3)ccc2N2CC[C@H]1C2` [Example 43], the Emax was no less than 150%.

Consider `Cc1cnccc1NC(=O)N1c2nc(-c3cccc(Cl)c3)ccc2N2CC[C@H]1C2` [Example 44], for which the Emax is no less than 150%.

Consider `O=C(Nc1cncc(F)c1)N1c2nc(-c3cccc(C(F)(F)F)c3)ccc2N2CCC[C@H]1C2` [Example 45], for which the Emax is no less than 150%.

As to `O=C(Nc1ccc(F)cn1)N1c2nc(-c3cccc(C(F)(F)F)c3)ccc2N2CC[C@H]1C2` [Example 46], the Emax is no less than 150%.

For the molecule `COc1nccc(NC(=O)N2c3nc(-c4cccc(C(F)(F)F)c4)ccc3N3CC[C@H]2C3)n1` [Example 47], the Emax was no less than 150%.

As to `Cc1nc(NC(=O)N2c3nc(-c4cccc(C(F)(F)F)c4)ccc3N3CC[C@H]2C3)sc1C` [Example 48], the Emax was no less than 150%.

Regarding `Cn1cc(NC(=O)N2c3nc(-c4cccc(C(F)(F)F)c4)ccc3N3CC[C@H]2C3)cn1` [Example 49], the Emax was no less than 150%.

`COc1nccc(NC(=O)N2c3nc(-c4cccc(Cl)c4)ccc3N3CC[C@H]2C3)n1` [Example 50]: the Emax was no less than 150%.

Regarding `CC(C)NC(=O)N1c2nc(-c3cccc(C(F)(F)F)c3)ccc2N2CC[C@H]1C2` [Example 51], the Emax was no less than 150%.

Regarding `CCN(CC)C(=O)N1c2nc(-c3cccc(C(F)(F)F)c3)ccc2N2CC[C@H]1C2` [Example 52], the “Tryp AVG EC1.5 (μM)” value is given as “C (EC1.5>25 μM)” and the Emax is less than 150%.

As to `O=C(Nc1cc(OCC(O)CO)ccn1)N1c2nc(-c3cccc(C(F)(F)F)c3)ccc2N2CC[C@H]1C2` (stereo partly shown) [Example 53], the Emax is no less than 150%.

As for `O=C(Nc1ccnc(OCC(O)CO)n1)N1c2nc(-c3cccc(Cl)c3)ccc2N2CC[C@H]1C2` (stereo partly shown) [Example 54], the Emax is no less than 150%.

`Cc1cc(OCC(O)CO)nc(NC(=O)N2c3nc(-c4cccc(Cl)c4)ccc3N3CC[C@H]2C3)n1` (stereo partly shown) [Example 55]: the Emax is no less than 150%.

On to `Cc1csc(NC(=O)N2c3nc(-c4cccc(C(F)(F)F)c4)ccc3N3CC[C@H]2C3)n1` [Example 56], for which the Emax was no less than 150%.

Regarding `O=C(Nc1ccccn1)N1c2nc(-c3cccc(F)c3)ccc2N2CC[C@H]1C2` [Example 57], the Emax was no less than 150%.

Take `O=C(Nc1cccnn1)N1c2nc(-c3cccc(F)c3)ccc2N2CC[C@H]1C2` [Example 58]: the Emax is no less than 150%.

Regarding `O=C(Nc1ccc(F)cn1)N1c2nc(-c3cccc(F)c3)ccc2N2CC[C@H]1C2` [Example 59], the Emax was no less than 150%.

For `COc1nccc(NC(=O)N2c3nc(-c4cccc(F)c4)ccc3N3CC[C@H]2C3)n1` [Example 60], the Emax was no less than 150%.

Take `Cc1cc(NC(=O)N2c3nc(-c4cccc(C(F)(F)F)c4)ccc3N3CC[C@H]2C3)ccn1` [Example 61]: the Emax is no less than 150%.

In the case of `Cc1cnccc1NC(=O)N1c2nc(-c3cccc(F)c3)ccc2N2CC[C@H]1C2` [Example 62], the Emax is no less than 150%.

For `O=C(Nc1cncc(OCC(O)CO)n1)N1c2nc(-c3cccc(Cl)c3)ccc2N2CC[C@H]1C2` (stereo partly shown) [Example 63], the Emax was no less than 150%.

On to `Cc1cc(OCC(O)CO)nc(NC(=O)N2c3nc(-c4cccc(F)c4)ccc3N3CC[C@H]2C3)n1` (stereo partly shown) [Example 64], for which the Emax was no less than 150%.

`O=C(Nc1ccnc(OCC(O)CO)n1)N1c2nc(-c3cccc(F)c3)ccc2N2CC[C@H]1C2` (stereo partly shown) [Example 65]: the Emax is no less than 150%.

`O=C(Nc1ccnc(OC[C@H](O)CO)c1)N1c2nc(-c3cccc(Cl)c3)ccc2N2CC[C@H]1C2` [Example 66]: the Emax is no less than 150%.

On to `CC(C)c1cccc(C(C)C)c1NC(=O)N1c2nc(-c3cccc(C(F)(F)F)c3)ccc2N2CC[C@H]1C2` [Example 67], for which the Emax is less than 150%.

As to `CCc1cccc(C)c1NC(=O)N1c2nc(-c3cccc(C(F)(F)F)c3)ccc2N2CC[C@H]1C2` [Example 69], the Emax was less than 150%.

As to `CC(C)(C)c1ccccc1NC(=O)N1c2nc(-c3cccc(C(F)(F)F)c3)ccc2N2CC[C@H]1C2` [Example 70], the Emax was less than 150%.

Take `CCc1cccc(CC)c1NC(=O)N1c2nc(-c3cccc(C(F)(F)F)c3)ccc2N2CC[C@H]1C2` [Example 71]: the Emax is less than 150%.

Regarding `CC(C)(C)c1csc(NC(=O)N2c3nc(-c4cccc(C(F)(F)F)c4)ccc3N3CC[C@H]2C3)n1` [Example 72], the Emax is no less than 150%.

Turning to `O=C(Nc1ccnc(OC[C@H](O)CO)c1)N1c2nc(-c3cccc(F)c3)ccc2N2CC[C@H]1C2` [Example 73], the Emax is no less than 150%.

For `O=C(Nc1ccncc1F)N1c2nc(-c3cccc(F)c3)ccc2N2CC[C@H]1C2` [Example 74], the Emax was no less than 150%.

For `CC(=O)c1sc(NC(=O)N2c3nc(-c4cccc(C(F)(F)F)c4)ccc3N3CC[C@H]2C3)nc1C` [Example 75], the “Tryp AVG EC1.5 (μM)” value was “A (EC1.5<1 μM)” and the Emax is no less than 150%.

Turning to `COc1ccc(C)nc1NC(=O)N1c2nc(-c3cccc(C(F)(F)F)c3)ccc2N2CC[C@H]1C2` [Example 77], the “Tryp AVG EC1.5 (μM)” value is “B (EC1.5 1-25 μM)” and the Emax was no less than 150%.

With `CC(=O)c1cc(F)c(NC(=O)N2c3nc(-c4cccc(C(F)(F)F)c4)ccc3N3CC[C@H]2C3)c(F)c1` [Example 78], the Emax is no less than 150%.

In the case of `Cc1cnc(NC(=O)N2c3nc(-c4cccc(C(F)(F)F)c4)ccc3N3CC[C@H]2C3)nc1-c1ccccc1` [Example 79], the Emax is no less than 150%.

As to `Cc1csc2nc(NC(=O)N3c4nc(-c5cccc(C(F)(F)F)c5)ccc4N4CC[C@H]3C4)nn12` [Example 80], the Emax was no less than 150%.

In the case of `O=C(Nc1cc[nH]c(=O)n1)N1c2nc(-c3cccc(C(F)(F)F)c3)ccc2N2CC[C@H]1C2` [Example 82], the Emax is no less than 150%.

On to `O=C(Nc1cccc2nccnc12)N1c2nc(-c3cccc(C(F)(F)F)c3)ccc2N2CC[C@H]1C2` [Example 83], for which the “Tryp AVG EC1.5 (μM)” value is given as “A (EC1.5<1 μM)” and the Emax was no less than 150%.

For the molecule `Cc1ccc2ncccc2c1NC(=O)N1c2nc(-c3cccc(C(F)(F)F)c3)ccc2N2CC[C@H]1C2` [Example 84], the Emax was less than 150%.

For `O=C(Nc1ccccn1)N1c2nc(-c3cccc(C(F)(F)F)c3)ccc2N2CC(O)C1C2` (stereo not shown) [Example 85], the Emax was no less than 150%.

As to `Cc1cc2c(NC(=O)N3c4nc(-c5cccc(C(F)(F)F)c5)ccc4N4CC[C@H]3C4)cccc2nn1` [Example 86], the Emax is no less than 150%.

On to `Cn1ncc2cc(NC(=O)N3c4nc(-c5cccc(C(F)(F)F)c5)ccc4N4CC[C@H]3C4)ccc21` [Example 87], for which the “Tryp AVG EC1.5 (μM)” value is reported as “A (EC1.5<1 μM)” and the Emax is no less than 150%.

For `O=C(Nc1nc2ccccc2s1)N1c2nc(-c3cccc(C(F)(F)F)c3)ccc2N2CC[C@H]1C2` [Example 90], the “Tryp AVG EC1.5 (μM)” value is reported as “A (EC1.5<1 μM)” and the Emax is no less than 150%.

The values are drawn from patent US9765075B2, “Substituted bridged urea analogs as sirtuin modulators” (GLAXOSMITHKLINE LLC, priority 2013, dated 2017).
